# Entries after “also recorded” stand apart in the source; their conditions may differ.
# Tests used:
# Type in all cases: in vivo, human
# neurogranin = experiment: Phase IIa CSF post-synaptic biomarker neurogranin (NG-36)
# Text: (§1) CSF samples were obtained at screening Visit and final Visit via lumbar puncture to determine levels of tau, p-tau, Aβ40, Aβ42 and AChE activity as an initial set of CSF biomarkers. Aliquots of CSF were made available for emerging CSF biomarker methods such as measurement of additional biomarkers including neurofilaments light chain, neurogranin, SNAP-25, synaptotagmin, YKL-40, TREM2, tau oligomers and for measurement of drug level in selected patients based on the time period between last dose of drug and CSF sampling (FIG. 25 and FIG. 58).
# Baseline CSF samples are obtained prior to administration via lumbar puncture. These samples are used to determine levels of tau, p-tau, Aβ40, Aβ42, AChE, neurofilament light chain, SNAP-25, synaptotagmin-1, neurogranin, sTREM, and YKL-40. Aliquots of CSF are also made available for emerging CSF biomarker methods such as measurement of tau oligomers and for measurement of drug level in selected patients based on time period between last dose of the salt of Formula (II) and CSF sampling. […] Many of these biomarkers can also be measured in blood or plasma. The change in values over the time period from pre-treatment to post-treatment are of particular importance. […] Absolute levels at single time points of neurofilament light chain, SNAP-25, synaptotagmin-1, neurogranin, sTREM, and YKL-40 in CSF or blood or plasma are of less value given differences in assay techniques and wide variation in absolute levels within normal subjects and within and across AD subjects. In contrast, absolute levels of Aβ42 and 40 at baseline are useful biomarkers indicating the presence of amyloid pathology as low levels of Aβ42 and 40 at a given time point are consistent with amyloid pathology.
# CSF biomarkers = experiment: Phase IIa CSF biomarkers, whole panel
# Text: as §1
# Baseline CSF samples are obtained prior to administration via lumbar puncture. These samples are used to determine levels of tau, p-tau, Aβ40, Aβ42, AChE, neurofilament light chain, SNAP-25, synaptotagmin-1, neurogranin, sTREM, and YKL-40. Aliquots of CSF are also made available for emerging CSF biomarker methods such as measurement of tau oligomers and for measurement of drug level in selected patients based on time period between last dose of the salt of Formula (II) and CSF sampling. […] Many of these biomarkers can also be measured in blood or plasma. The change in values over the time period from pre-treatment to post-treatment are of particular importance. […]
# [1] = tested on: patients with mild to moderate Alzheimer's disease; experiment: Phase IIa structural MRI (regions of interest and voxel-based whole brain analysis)
# Method: Volumetric MRI is conduction at the first and final visits. Volumetric analyses of the whole brain, hippocampus and other regions of interest are conducted. Measures of regional volumes as determined by MRI are regarded as standard measures of brain degeneration that are known to occur in AD. Volumes of the lateral ventricles are also assessed. Increasing ventricular volume is a marker for a diffuse increase in brain atrophy. […] The following Regions of interest were investigated in the ITT population: MRI Volume of the lateral ventricles in mm3—longitudinal stream change, MRI Average volume of the hippocampus in mm3—longitudinal stream change, MRI Average Volume of the entorhinal cortex in mm3—longitudinal stream change, MRI Total brain volume in mm3 change. Baseline and final Visit MRI scan were used to measure interval changes in volumes. Various cortical regions such as the Cingulate cortex were also assessed. […] The identified brain regions are similar in distribution to those having been previously identified to be particularly vulnerable to degeneration in AD.
# For this analysis, the drug treatment group contains subject treated with either 200 or 400 mg doses. […] FIGS. 46A-46C show group x time interaction patterns using T1-weighted structural MRI. Contrast estimate plots show the magnitude and direction of the interaction effects observed in the flexible factorial GLM. […] Therefore, if the actual observed ratio of t-values is close to equivalent in the input map at a given p and k threshold, the MCS ratio and p-value will tend to support the null hypothesis of no drug effect. […] Increased thickness is similar to increased volume and means less degeneration. Here increased gyrification means increased atrophy.
# [2] = tested on: patients with mild to moderate Alzheimer's disease; experiment: Phase IIa cognitive testing (ADAS-cog, MMSE)
# Method: Exploratory outcome evaluations involved the assessment of cognitive and clinical function (Table 1). […] Items from the Neurological Testing Battery (NTB), together with the ADAS-Cog 13, Spatial Navigation Test (AMUNET) were performed at Baseline, Week 12 and Week 26 (Visits 2, 4 and 5). While the MMSE was used primarily as a screening and baseline disease staging tool, its repeated administration at Week 26 provided an additional exploratory cognitive outcome measure. The Geriatric Depression Scale (GDS) was assessed at each Visit (Screening, Baseline, Week 4, 12, 26: Visits 1-5) and the Clinical Global Impression test (CGI) with Severity was assessed at Screening (Visit 1) and then the Improvement was subsequently assessed at Weeks 12 and 26 (Visits 4 and 5). For each test, whether categorical or numeric, all raw scores were considered interval in nature. The change from Screening (Week −8) or Baseline (Week 0) was therefore be derived for each patient. Actual values at each Visit and Changes from Screening/Baseline were summarized.
# Alzheimer's Disease Assessment Scale—13 items (total score=85) is used as a parameter for exploratory outcome analysis. ADAS-cog is a psychometric instrument designed to evaluate the severity of cognitive and non-cognitive behavioral dysfunctions characteristic of people with AD. The cognitive portion assesses memory, language and praxis functions. Most items are rated on a scale of 0 to 5, where 0 indicates no impairment and 1 to 5 indicates very mild (1), mild (2), moderate (3), moderately severe (4) or severe impairment (5) respectively. Other items are rated on the presence or absence of a characteristic number of errors or severity of errors. The total scores from the ADAS-cog sub-scales range from 0 (no impairment) to 85 (errors in all sub-tests).
# A positive (i.e. increasing) change of the score indicates cognitive worsening. In a meta-analysis model of 52 Alzheimer's Disease trials involving 19,972 mild-moderate disease subjects, a spontaneous decline in performance corresponding to an increase in ADAS-cog score of 5.5 points over one year, pointing to an expected average increase in score of 2.75 points over a 6-month period.
# ADAS-Cog was assessed at Visits 2, 4 and 5, as well as at the early discontinuation Visit, if applicable.
# While the MMSE was used primarily as a screening and baseline disease-staging tool, its administration at Week 26 provided an additional exploratory cognitive outcome measure.
# Mini Mental Status Exam (MMSE). The MMSE can be used by a physician to evaluate a patient's condition over the course of administration. A baseline value prior to administration of a salt of Formula (II) can serve as a basis for baseline disease stage and also for the assessment of the effect of treatment on slowing loss of cognitive function. The expected decline in MMSE over a six month period generally ranges 1-3 points out of the total of 30 points possible in the MMSE test.
smiles,measurement,setting,value
"CC[C@H](C)[C@H](N)C(=O)NCCN1CCOCC1 [LM11A-31-BHS, Tris[(2S,3S)-2-amino-3-methyl-N-(2-morpholinoethyl)pentanamide] tetra(monohydrogensulfate), monosulfate]","CSF neurogranin-36, drug dose analysis",neurogranin; 200 mg dose versus placebo,significant lowering of NG-36
same,"CSF neurogranin-36, drug dose analysis",neurogranin; 400 mg dose versus placebo,trend for reduction
same,CSF neurogranin levels in the drug group,"neurogranin; combined drug group, 6 months, p=0.02",significant decrease
same,drug effect across all CSF biomarkers by age group,CSF biomarkers; <72 years versus >=72 years,the drug effect was in general greater in the younger versus older group
same,"effect on biomarkers indicating neuronal degeneration, gliosis and neuro-inflammation","CSF biomarkers; CSF, pre-treatment to post-treatment","ability to slow progression of increase of biomarkers indicating neuronal degeneration, gliosis and neuro-inflammation"
same,cortical thickness and gyrification,[1]; anterior cingulate region area 33 prime,drug effect on improving cortical thickness or decreasing gyrification
same,"hippocampal (HC) volume, sMRI","[1]; combined drug group, 6-month period, p=0.006",significant increase in HC volume
same,volume of the dentate gyrus,"[1]; drug group, humans",promotes increased volume of the dentate gyrus; also recorded: significant increase in the volume of the dentate gyrus
same,"voxel-wise T1-weighted structural MRI, loss of volume, dose analysis","[1]; flexible factorial GLM, p<0.05 and cluster size >100",significant effect at both the 200 and 400 mg doses in slowing loss of volume
same,"volume loss in voxel-based whole brain MRI, drug versus placebo",[1]; treatment period,slow volume loss in brain regions known to be particularly vulnerable to degeneration in AD
same,"voxel-wise structural MRI volume loss, age analysis","[1]; younger <72 years, older >=72 years",significant drug effect in both age groups
same,"ADAS-cog-11, drug dose analysis",[2]; 200 mg bid and 400 mg bid versus placebo,trend for decreased worsening of cognitive scores at both doses
same,"ADAS-cog-13, drug dose analysis",[2]; 200 and 400 mg groups versus placebo,nominal decrease in the increase in score
same,slowing trend in clinical outcome measures,"[2]; at 6 months, phase 2a study",30-45%
same,"worsening of ADAS-13 and -11 scores, drug versus placebo","[2]; combined drug group, 26 weeks, does not reach statistical significance",trend in slowing the worsening
same,directionality of slowing progression of worsening in ADAS-cog and MMSE,[2]; drug versus placebo,favorable effect of drug treatment
same,"trends for slower progression of ADAS-cog and MMSE scores, dose comparison",[2]; effects at neither dose reached statistical significance,greater at the 400 compared to 200 mg doses

# — patent US20240398822A1, “METHODS AND COMPOSITIONS FOR TREATING AND MANAGING ALZHEIMER'S DISEASE” (Pharmatrophix, Inc., priority 2021, published 2024)
